Test results as given in US8394990B2, “Phenylurea inhibitors of the enzyme SOAT-1 and pharmaceutical/cosmetic compositions comprised thereof” (Galderma Research & Development, priority 2007, dated 2013).

Target: T1, enzyme ACAT-1 (Homo sapiens, UniProt P35610)
T1 construct: endogenous in cells; host or cells: HepG2
T1 sequence (P35610 1-550): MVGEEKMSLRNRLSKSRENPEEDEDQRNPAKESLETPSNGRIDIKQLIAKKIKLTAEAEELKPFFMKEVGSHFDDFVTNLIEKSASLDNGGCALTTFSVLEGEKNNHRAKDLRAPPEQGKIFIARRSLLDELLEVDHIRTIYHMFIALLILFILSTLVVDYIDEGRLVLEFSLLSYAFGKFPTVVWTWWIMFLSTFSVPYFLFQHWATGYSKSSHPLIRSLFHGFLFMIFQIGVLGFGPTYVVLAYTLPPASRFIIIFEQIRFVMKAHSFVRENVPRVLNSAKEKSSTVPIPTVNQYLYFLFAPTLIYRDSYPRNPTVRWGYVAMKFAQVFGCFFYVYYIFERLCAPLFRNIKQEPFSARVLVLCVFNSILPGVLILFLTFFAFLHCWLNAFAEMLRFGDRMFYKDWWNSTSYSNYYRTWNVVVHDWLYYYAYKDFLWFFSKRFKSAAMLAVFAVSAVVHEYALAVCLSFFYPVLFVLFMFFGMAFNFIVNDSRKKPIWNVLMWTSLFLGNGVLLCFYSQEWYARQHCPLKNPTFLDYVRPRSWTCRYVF
Experiment: NBD-cholesterol fluorescence test in HepG2 cells for inhibitory activity towards ACAT-1 (SOAT-1)
Assay type: cell-based
Settings: NBD-cholesterol 1 μg/ml, incubation 6 hrs at 37° C., fluorescence excitation 490 nm, emission 540 nm
Method: The compounds (I) according to the invention, and the pharmaceutically acceptable salts, solvates and/or hydrates thereof, have inhibitory properties towards the enzyme SOAT-1. This inhibitory action on the enzyme SOAT-1 is measured according to a primary enzymatic test HepG2, as described below.
The compounds of formula (I) according to the invention were subjected to a test making it possible to evaluate their inhibitory activity towards the enzyme ACAT-1 inspired by the following publication: “Identification of ACAT1- and ACAT2-specific inhibitors using a novel, cell based fluorescence assay: individual ACAT uniqueness” J. lipid. Res (2004) vol 45, pages 378-386. The principle of this test is based on the use of NBD-cholesterol, an analogue of cholesterol whose fluorescence depends on its environment. When it is in a polar environment, it is weakly fluorescent, whereas in a non-polar environment it is strongly fluorescent. […]
The following method is applied: the HepG2 cells are incubated in the presence of NBD-cholesterol (1 μg/ml) and of the compound of formula (I) to be tested in transparent-bottomed black 96-well plates at a level of 30000 cells per well. […] After addition of 50 μl of lysis buffer (10 mM NaPO4, 1% lgepal), the plates are shaken for 5 mins and read in fluorescence (excitation 490 nm, emission 540 nm) on a FUSION instrument (Perkin Elmer).

IC50 | Compound
9.5 nM | CC(C)c1cccc(C(C)C)c1NC(=O)NCC1(Nc2ccccc2-c2ccccc2)CCCC1 [I.4, 1-[1-(biphenyl-2-ylamino)-cyclopentylmethyl]-3-(2,6-diisopropylphenyl)-urea]
24.1 nM | CC(C)c1cccc(C(C)C)c1NC(=O)NCC1(Nc2ccccc2I)CCCC1 [I.2, 1-(2,6-diisopropylphenyl)-3-[1-(2-iodophenylamino)-cyclopentylmethyl)-urea]
